Data as given in ChEMBL document CHEMBL4665658, “Quinoline and thiazolopyridine allosteric inhibitors of MALT1” (Bioorg Med Chem Lett, 2019).

Columns and labels:
[1] = Metabolic stability in human microsome assessed as half life; type: ADME; set-up: dose or concentration left out as unconfirmed; conditions: microsomes, read-out: Stabilty
[2] = Aqueous solubility of the compound at pH 7; type: physicochemical; conditions: aqueous medium
[3] = Metabolic stability in mouse microsome assessed as half life; type: ADME; set-up: dose or concentration left out as unconfirmed; conditions: microsomes, read-out: Stabilty
[4] = AUC (0 to infinity) in mouse at 1 mg/kg, iv or 5 mg/kg, po; type: ADME, organism-based; set-up: dose 5 mg/kg; conditions: in vivo
[5] = system: OCI-Ly3; assay: Antiproliferative activity against human OCILY3 cells by cell proliferation assay; type: functional, cell-based
[6] = Plasma protein binding in mouse assessed as unbound fraction; type: ADME, cell-free; set-up: dose or concentration left out as unconfirmed; conditions: read-out: PPB
[7] = Clearance in mouse at 1 mg/kg, iv; type: ADME, organism-based; conditions: in vivo
[8] = Half life in mouse at 1 mg/kg, iv or 5 mg/kg, po; type: ADME, organism-based; conditions: in vivo
[9] = Oral bioavailability in mouse at 5 mg/kg; type: ADME, organism-based; conditions: in vivo
[10] = Plasma protein binding in human assessed as unbound fraction; type: ADME, cell-free; conditions: read-out: PPB
[11] = target: Prothrombin (Homo sapiens) (UniProt P00734); assay: Inhibition of thrombin (unknown origin) at 10 uM
[12] = target: Kallikrein-1 (Homo sapiens) (UniProt P06870); assay: Inhibition of KLK1 (unknown origin) at 10 uM
[13] = target: Kallikrein-2 (Homo sapiens) (UniProt P20151); assay: Inhibition of KLK2 (unknown origin) at 10 uM
[14] = species on record: Homo sapiens; assay: Inhibition of tryptase (unknown origin) at 10 uM
[15] = target: Trypsin (Homo sapiens) (UniProt P07477+P07478+P35030); assay: Inhibition of trypsin (unknown origin) at 10 uM; type: protein assay
[16] = target: Urokinase-type plasminogen activator (Homo sapiens) (UniProt P00749); assay: Inhibition of urokinase (unknown origin) at 10 uM
[17] = target: Cathepsin B (Homo sapiens) (UniProt P07858); assay: Inhibition of cathepsin B (unknown origin) at 10 uM
[18] = target: T1, Pro-cathepsin H (Homo sapiens) (UniProt P09668); assay: Inhibition of cathepsin H (unknown origin) at 10 uM
T1 sequence (whole entry): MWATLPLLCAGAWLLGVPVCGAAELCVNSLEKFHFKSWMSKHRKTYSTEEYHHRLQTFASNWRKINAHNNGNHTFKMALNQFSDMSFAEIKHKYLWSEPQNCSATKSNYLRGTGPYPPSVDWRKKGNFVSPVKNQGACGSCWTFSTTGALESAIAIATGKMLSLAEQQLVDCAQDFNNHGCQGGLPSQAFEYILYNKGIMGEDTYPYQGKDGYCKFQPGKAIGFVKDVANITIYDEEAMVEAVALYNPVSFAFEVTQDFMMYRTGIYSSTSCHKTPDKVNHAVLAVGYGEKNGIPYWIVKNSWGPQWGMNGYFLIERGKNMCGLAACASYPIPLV

[19] = target: T2, Cathepsin K (Homo sapiens) (UniProt P43235); assay: Inhibition of cathepsin K (unknown origin) at 10 uM
T2 sequence (whole entry): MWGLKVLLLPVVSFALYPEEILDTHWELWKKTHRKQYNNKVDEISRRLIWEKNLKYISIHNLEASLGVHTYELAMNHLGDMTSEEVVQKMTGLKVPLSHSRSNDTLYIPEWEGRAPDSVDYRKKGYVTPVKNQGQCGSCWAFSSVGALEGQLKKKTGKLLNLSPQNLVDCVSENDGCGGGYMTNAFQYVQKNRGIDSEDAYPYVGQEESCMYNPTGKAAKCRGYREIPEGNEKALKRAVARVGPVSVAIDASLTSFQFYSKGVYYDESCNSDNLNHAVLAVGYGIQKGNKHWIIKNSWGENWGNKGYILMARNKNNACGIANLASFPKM

[20] = target: Procathepsin L (Homo sapiens) (UniProt P07711); assay: Inhibition of cathepsin L (unknown origin) at 10 uM
[21] = target: Cathepsin S (Homo sapiens) (UniProt P25774); assay: Inhibition of cathepsin S (unknown origin) at 10 uM
[22] = target: Caspase-3 (Homo sapiens) (UniProt P42574); assay: Inhibition of Caspase 3 (unknown origin) at 10 uM
[23] = target: T3, Caspase-4 (Homo sapiens) (UniProt P49662); assay: Inhibition of Caspase 4 (unknown origin) at 10 uM
T3 sequence (whole entry): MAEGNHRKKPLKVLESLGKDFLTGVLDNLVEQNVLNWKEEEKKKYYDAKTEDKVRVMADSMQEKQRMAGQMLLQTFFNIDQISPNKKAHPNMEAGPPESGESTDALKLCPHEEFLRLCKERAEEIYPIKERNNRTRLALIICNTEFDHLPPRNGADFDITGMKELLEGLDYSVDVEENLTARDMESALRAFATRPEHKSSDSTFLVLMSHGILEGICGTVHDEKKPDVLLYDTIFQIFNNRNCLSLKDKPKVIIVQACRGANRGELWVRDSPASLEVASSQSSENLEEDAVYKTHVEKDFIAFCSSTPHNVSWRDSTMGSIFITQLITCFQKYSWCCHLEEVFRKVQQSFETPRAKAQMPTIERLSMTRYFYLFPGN

[24] = target: T4, Caspase-6 (Homo sapiens) (UniProt P55212); assay: Inhibition of Caspase 6 (unknown origin) at 10 uM
T4 sequence (whole entry): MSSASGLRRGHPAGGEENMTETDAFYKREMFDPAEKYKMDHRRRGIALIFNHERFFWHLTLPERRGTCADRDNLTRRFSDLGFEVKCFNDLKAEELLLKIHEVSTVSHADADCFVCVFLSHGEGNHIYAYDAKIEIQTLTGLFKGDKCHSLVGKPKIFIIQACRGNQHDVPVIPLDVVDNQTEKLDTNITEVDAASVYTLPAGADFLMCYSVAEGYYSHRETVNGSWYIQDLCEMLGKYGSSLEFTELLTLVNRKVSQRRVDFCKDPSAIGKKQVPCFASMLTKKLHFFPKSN

[25] = target: Caspase-8 (Homo sapiens) (UniProt Q14790); assay: Inhibition of Caspase 8 (unknown origin) at 10 uM
[26] = target: Caspase-9 (Homo sapiens) (UniProt P55211); assay: Inhibition of Caspase 9 (unknown origin) at 10 uM
[27] = target: Caspase-10 (Homo sapiens) (UniProt Q92851); assay: Inhibition of Caspase 10 (unknown origin) at 10 uM
[28] = species on record: Homo sapiens; assay: Inhibition of Calpain (unknown origin) at 10 uM
[29] = target: T5, Legumain (Homo sapiens) (UniProt Q99538); assay: Inhibition of Legumain (unknown origin) at 10 uM
T5 sequence (whole entry): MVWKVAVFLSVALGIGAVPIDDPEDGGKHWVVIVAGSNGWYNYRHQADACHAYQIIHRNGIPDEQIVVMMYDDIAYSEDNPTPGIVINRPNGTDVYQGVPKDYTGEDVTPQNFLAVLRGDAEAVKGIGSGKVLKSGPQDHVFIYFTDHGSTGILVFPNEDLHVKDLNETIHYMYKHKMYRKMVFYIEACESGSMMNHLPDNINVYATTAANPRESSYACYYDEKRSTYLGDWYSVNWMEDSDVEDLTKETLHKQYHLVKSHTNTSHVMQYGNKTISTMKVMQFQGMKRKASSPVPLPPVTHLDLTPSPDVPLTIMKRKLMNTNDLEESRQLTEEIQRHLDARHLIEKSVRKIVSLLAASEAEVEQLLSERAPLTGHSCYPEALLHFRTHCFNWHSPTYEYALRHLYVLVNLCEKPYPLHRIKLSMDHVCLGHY

[30] = target: Cathepsin D (Homo sapiens) (UniProt P07339); assay: Inhibition of cathepsin D (unknown origin) at 10 uM
[31] = target: Cathepsin E (Homo sapiens) (UniProt P14091); assay: Inhibition of cathepsin E (unknown origin) at 10 uM
[32] = target: Coagulation factor X (Homo sapiens) (UniProt P00742); assay: Inhibition of factor Xa (unknown origin) at 10 uM
[33] = target: Cathepsin G (Homo sapiens) (UniProt P08311); assay: Inhibition of cathepsin G (unknown origin) at 10 uM
[34] = target: Cathepsin L2 (Homo sapiens) (UniProt O60911); assay: Inhibition of cathepsin V (unknown origin) at 10 uM
[35] = target: Caspase-1 (Homo sapiens) (UniProt P29466); assay: Inhibition of Caspase 1 (unknown origin) at 10 uM
[36] = target: Caspase-2 (Homo sapiens) (UniProt P42575); assay: Inhibition of Caspase 2 (unknown origin) at 10 uM
[37] = target: Caspase-5 (Homo sapiens) (UniProt P51878); assay: Inhibition of Caspase 5 (unknown origin) at 10 uM
[38] = target: Caspase-7 (Homo sapiens) (UniProt P55210); assay: Inhibition of Caspase 7 (unknown origin) at 10 uM
Chain of Caspase-7 (Homo sapiens) (P55210 24-198 limits assumed): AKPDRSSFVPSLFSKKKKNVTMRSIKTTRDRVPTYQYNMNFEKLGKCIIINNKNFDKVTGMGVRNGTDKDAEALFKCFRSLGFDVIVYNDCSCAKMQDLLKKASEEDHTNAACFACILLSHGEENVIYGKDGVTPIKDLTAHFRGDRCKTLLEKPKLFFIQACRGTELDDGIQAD
Chain of Caspase-7 (Homo sapiens) (P55210 207-303 limits assumed): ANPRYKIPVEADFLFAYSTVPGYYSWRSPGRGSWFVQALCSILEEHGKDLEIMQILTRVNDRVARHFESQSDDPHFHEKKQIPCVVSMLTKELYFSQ

Chain of Kallikrein-2 (Homo sapiens) (P20151 whole entry): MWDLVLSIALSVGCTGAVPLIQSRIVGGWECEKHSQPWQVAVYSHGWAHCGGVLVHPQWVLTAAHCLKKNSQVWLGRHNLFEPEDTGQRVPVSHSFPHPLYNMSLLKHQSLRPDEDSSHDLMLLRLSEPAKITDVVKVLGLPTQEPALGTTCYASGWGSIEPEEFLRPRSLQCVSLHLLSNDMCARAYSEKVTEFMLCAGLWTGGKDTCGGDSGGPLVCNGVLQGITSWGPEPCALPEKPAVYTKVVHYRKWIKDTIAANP
Chain of Caspase-10 (Homo sapiens) (Q92851 220-415 limits assumed): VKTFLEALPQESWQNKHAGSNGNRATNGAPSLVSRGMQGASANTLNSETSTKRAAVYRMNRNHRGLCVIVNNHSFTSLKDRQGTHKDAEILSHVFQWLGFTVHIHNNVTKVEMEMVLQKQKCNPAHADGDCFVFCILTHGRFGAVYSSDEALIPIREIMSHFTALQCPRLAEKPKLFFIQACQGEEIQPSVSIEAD
Chain of Caspase-10 (Homo sapiens) (Q92851 416-521 limits assumed): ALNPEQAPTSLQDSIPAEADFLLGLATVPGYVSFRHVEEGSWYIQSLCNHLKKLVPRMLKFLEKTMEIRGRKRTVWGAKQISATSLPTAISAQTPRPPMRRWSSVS
Chain of Cathepsin S (Homo sapiens) (P25774 115-331 limits assumed): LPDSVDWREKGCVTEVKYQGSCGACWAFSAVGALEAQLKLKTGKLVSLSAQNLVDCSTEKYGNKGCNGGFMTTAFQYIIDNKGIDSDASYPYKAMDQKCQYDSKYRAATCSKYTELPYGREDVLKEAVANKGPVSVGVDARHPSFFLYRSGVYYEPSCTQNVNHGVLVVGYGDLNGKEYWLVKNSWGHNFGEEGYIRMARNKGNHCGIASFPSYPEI
Chain of Caspase-8 (Homo sapiens) (Q14790 217-374 limits assumed): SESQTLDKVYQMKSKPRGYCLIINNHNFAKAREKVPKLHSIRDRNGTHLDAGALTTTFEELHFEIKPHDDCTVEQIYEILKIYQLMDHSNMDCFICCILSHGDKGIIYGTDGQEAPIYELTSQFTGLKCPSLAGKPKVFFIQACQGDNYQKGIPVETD
Chain of Caspase-8 (Homo sapiens) (Q14790 385-479 limits assumed): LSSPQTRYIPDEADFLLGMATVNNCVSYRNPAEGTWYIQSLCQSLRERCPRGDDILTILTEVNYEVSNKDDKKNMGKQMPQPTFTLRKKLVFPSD
Chain of Kallikrein-1 (Homo sapiens) (P06870 25-262 limits assumed): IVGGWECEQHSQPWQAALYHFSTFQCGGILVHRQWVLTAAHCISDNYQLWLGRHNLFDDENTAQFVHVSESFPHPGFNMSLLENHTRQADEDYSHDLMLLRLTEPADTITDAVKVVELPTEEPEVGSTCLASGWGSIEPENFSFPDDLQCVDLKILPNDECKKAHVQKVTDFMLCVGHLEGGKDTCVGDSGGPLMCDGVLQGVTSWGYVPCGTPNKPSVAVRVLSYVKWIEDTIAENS
Chain of Caspase-3 (Homo sapiens) (P42574 29-175 limits assumed): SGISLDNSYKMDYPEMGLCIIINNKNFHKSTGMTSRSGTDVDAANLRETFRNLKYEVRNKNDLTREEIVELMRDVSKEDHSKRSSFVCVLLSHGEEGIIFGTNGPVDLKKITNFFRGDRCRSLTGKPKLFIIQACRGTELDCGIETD
Chain of Caspase-3 (Homo sapiens) (P42574 176-277 limits assumed): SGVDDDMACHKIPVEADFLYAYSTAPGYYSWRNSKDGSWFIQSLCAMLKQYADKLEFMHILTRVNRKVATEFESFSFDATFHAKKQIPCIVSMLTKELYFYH
Chain of Procathepsin L (Homo sapiens) (P07711 114-333 limits assumed): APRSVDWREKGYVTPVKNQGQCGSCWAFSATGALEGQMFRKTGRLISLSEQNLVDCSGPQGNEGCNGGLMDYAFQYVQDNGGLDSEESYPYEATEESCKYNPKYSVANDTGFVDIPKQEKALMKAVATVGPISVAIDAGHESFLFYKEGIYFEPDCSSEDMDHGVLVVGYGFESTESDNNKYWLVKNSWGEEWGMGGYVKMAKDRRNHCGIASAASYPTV
Chain of Caspase-9 (Homo sapiens) (P55211 1-315 limits assumed): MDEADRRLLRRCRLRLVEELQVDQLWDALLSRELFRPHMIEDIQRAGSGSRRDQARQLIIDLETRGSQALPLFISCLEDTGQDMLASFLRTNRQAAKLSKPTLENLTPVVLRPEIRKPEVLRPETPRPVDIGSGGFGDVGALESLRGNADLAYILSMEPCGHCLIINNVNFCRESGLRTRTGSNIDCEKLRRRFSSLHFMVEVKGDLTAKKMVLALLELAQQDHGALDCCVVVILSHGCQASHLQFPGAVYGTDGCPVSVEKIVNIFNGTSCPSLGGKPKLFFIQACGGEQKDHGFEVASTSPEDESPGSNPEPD
Chain of Caspase-9 (Homo sapiens) (P55211 331-416 limits assumed): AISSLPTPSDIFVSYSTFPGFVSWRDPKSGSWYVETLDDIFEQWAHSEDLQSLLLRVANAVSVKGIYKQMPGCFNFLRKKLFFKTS
Chain of Coagulation factor X (Homo sapiens) (P00742 41-179 limits assumed): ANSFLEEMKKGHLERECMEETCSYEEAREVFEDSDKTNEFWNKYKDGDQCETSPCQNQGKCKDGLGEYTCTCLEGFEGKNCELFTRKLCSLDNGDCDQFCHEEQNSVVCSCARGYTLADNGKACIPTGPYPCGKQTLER
Chain of Coagulation factor X (Homo sapiens) (P00742 235-488 limits assumed): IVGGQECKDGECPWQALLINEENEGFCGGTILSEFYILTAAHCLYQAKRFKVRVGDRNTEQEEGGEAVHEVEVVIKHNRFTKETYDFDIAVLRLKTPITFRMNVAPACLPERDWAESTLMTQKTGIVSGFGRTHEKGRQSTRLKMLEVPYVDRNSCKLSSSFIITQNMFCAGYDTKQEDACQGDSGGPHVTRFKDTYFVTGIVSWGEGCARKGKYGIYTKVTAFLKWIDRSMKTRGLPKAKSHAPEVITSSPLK
Chain of Cathepsin D (Homo sapiens) (P07339 65-162 limits assumed): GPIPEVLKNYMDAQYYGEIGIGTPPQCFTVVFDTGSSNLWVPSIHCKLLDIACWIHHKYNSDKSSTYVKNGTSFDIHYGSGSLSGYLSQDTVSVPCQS
Chain of Cathepsin D (Homo sapiens) (P07339 169-412 limits assumed): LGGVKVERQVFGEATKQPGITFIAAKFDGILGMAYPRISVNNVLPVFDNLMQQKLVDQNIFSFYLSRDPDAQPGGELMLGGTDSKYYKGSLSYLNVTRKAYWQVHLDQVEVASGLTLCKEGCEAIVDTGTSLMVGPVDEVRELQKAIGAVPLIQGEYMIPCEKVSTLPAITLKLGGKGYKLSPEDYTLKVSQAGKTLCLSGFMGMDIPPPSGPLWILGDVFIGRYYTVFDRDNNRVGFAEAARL
Chain of Caspase-5 (Homo sapiens) (P51878 137-327 limits assumed): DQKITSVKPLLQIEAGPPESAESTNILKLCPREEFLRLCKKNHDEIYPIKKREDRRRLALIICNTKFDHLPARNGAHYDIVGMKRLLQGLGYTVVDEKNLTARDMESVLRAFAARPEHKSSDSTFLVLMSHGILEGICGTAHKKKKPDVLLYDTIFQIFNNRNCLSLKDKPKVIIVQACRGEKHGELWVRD
Chain of Caspase-5 (Homo sapiens) (P51878 347-434 limits assumed): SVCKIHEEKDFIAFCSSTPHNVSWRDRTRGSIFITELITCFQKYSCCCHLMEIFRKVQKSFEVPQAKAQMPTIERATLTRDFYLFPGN
Chain of Cathepsin E (Homo sapiens) (P14091 whole entry): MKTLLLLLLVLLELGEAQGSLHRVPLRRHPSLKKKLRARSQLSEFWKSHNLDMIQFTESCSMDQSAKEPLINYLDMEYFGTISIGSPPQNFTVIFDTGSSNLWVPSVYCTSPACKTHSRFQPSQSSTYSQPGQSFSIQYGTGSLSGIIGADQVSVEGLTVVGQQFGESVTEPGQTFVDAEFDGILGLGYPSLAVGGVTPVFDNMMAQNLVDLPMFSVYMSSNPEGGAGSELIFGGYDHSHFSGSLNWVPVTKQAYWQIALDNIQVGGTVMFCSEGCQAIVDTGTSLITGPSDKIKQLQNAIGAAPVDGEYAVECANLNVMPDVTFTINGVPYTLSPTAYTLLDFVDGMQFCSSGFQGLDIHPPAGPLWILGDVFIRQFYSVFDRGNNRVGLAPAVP
Chain of Cathepsin L2 (Homo sapiens) (O60911 whole entry): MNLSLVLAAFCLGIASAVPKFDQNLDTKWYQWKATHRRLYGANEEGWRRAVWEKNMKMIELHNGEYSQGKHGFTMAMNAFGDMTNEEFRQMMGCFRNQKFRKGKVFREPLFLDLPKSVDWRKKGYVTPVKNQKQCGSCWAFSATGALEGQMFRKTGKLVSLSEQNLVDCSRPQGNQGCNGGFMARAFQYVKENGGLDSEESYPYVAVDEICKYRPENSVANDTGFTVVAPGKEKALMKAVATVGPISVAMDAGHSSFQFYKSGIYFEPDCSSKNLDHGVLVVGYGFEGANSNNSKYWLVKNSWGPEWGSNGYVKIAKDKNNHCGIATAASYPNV
Chain of Caspase-2 (Homo sapiens) (P42575 170-325 limits assumed): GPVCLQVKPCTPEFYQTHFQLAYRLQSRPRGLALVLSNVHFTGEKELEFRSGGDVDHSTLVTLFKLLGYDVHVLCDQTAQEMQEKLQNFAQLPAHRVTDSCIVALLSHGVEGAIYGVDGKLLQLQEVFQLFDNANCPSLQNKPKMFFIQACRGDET
Chain of Caspase-2 (Homo sapiens) (P42575 334-452 limits assumed): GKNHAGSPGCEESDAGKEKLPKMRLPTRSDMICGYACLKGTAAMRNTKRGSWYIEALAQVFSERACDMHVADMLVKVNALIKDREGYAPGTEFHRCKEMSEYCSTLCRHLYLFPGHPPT

Row | EC50 [5] [nM] | inhibition [11] [%] | inhibition [12] [%] | inhibition [13] [%] | inhibition [14] [%] | inhibition [15] [%] | inhibition [16] [%] | inhibition [17] [%] | inhibition [18] [%] | inhibition [19] [%] | inhibition [20] [%] | inhibition [21] [%] | inhibition [22] [%] | inhibition [23] [%] | inhibition [24] [%] | inhibition [25] [%] | inhibition [26] [%] | inhibition [27] [%] | inhibition [28] [%] | inhibition [29] [%] | SMILES | also measured
1 | 360 | 18.8 | -9 | -2.6 | 2 | 1.9 | 22 | 1 | 14.1 | 11.8 | 21.9 | 15.7 | 1 | 9 | -3.9 | 10.8 | 17.5 | -5.2 | -9.4 | -4.2 | CCOC(C)c1c(NC(=O)Nc2cnc(-n3nccn3)c(Cl)c2)cnc2sc(C)nc12 (stereo not drawn) | half-life [1]: 43 min; solubility [2]: < 4 µM; half-life [3]: 127 min; AUC(0-inf) [4]: 10100 ng·h/mL; fraction unbound [6]: 0.022; clearance [7]: 1.6 mL/min/kg; half-life [8]: 192 min; bioavailability [9]: 19%; fraction unbound [10]: 0.025
2 | 120 | 98.7 | 99.7 | 94.8 | 99.4 | 100 | 108 | 99.9 | 98.8 | 102 | 99.7 | 100 | 99.9 | 110 | 88.1 | 99.7 | 89.2 | 89.9 | 98.8 | 88.4 | CO[C@@H](C)c1c(NC(=O)Nc2cnc(-n3nccn3)c(Cl)c2)cnc2cc(Cl)nn12 | inhibition [30]: 99.8%; inhibition [31]: 100%; inhibition [32]: 99.8%; inhibition [33]: 92.5%; inhibition [34]: 99%; inhibition [35]: 99.7%; inhibition [36]: 87.3%; inhibition [37]: 92.6%; inhibition [38]: 98.1%
